Test results published in patent publication USRE31731E, “Herbicidal 4-trifluoromethyl-4-nitrodiphenyl ethers” (priority 1978, dated 1984).

Assays:
Format in all cases: in vivo
[1] = test system: Monocots; experiment: Herbicidal activity, postemergence, monocot weeds (Table II); settings: post-emergence, 336 h, about 2 weeks, read-out: % control (percent of plants killed); for pest or weed control at 2241.7 g/ha: 2 lb./A.; for pest or weed control at 4483.4 g/ha: 4 lb./A.
Procedure: (§1) Using the procedure described below, diphenyl ethers were evaluated for control of the following weeds: […]
(§2) barnyardgrass (Echinochloa crusgalli) crabgrass (Digitaria spp.) nutsedge (Cyperus esculentus)
(§3) At 2 and 4 pounds per acre:
(§4) **Bermudagrass (Cynodon dactylon)
(§5) *downy brome (Bromus tectorum) foxtail (Setaria faberii)
(§6) Johnsongrass (Sorghum halepense) […]
(§7) quackgrass (Agropyron repens)
(§8) *ryegrass (Lolium perenne)
(§9) *yellow millet (Panicum miliaceum)
(§10) The following test procedure is employed. Seeds of selected crops and weeds are planted in soil in flats. For preemergence tests, the flats are treated with the test compound immediately after the planting. For postemergence tests, the seeds are allowed to germinate, and after 2 weeks the flats are treated with the test compound. The compound to be evaluated is dissolved in acetone, diluted with water, and sprayed over the flats using a carrier volume equivalent to 50 gallons per acre at the rate of application (pounds per acre, lb/A.) specified in the tables. About 2 weeks after the application of the test compound, the state of growth of the plants is observed and the phytotoxic effect of the compound is evaluated. Table II gives the average percent control achieved by the test compounds in terms of the percent of the plants which are killed by the compounds.

[2] = test system: corn; experiment: Crop tolerance, corn; settings: 50% or less kill of crop at rates giving more than 50% kill of weeds
Procedure: as §10
(§11) Following the general test procedure of Example 73, diphenyl ethers are evaluated for significant tolerance (as shown by 50% or less kill of the test crop at levels of application which give more than 50% kill of many or all of the weeds of Example 73) towards some or all of the following common agronomic crops (not all compounds tested against all crops): alfalfa, snapbeans, corn, cotton, cucumbers, peanuts, rape, rice, safflower, soybeans, tomatoes, and wheat.

[3] = test system: Monocots; experiment: Herbicidal activity, preemergence, monocot weeds (Table II); settings: pre-emergence, 336 h, about 2 weeks, read-out: % control (percent of plants killed); for pest or weed control at 2241.7 g/ha: 2 lb./A.; for pest or weed control at 4483.4 g/ha: 4 lb./A.
Procedure: as §1, §2, §3, §4, §5, §6, §7, §8, §9, §10

[4] = test system: soybeans; experiment: Crop tolerance, soybeans; settings: 50% or less kill of crop at rates giving more than 50% kill of weeds
Procedure: as §10, §11

[5] = test system: rice; experiment: Crop tolerance, rice; settings: 50% or less kill of crop at rates giving more than 50% kill of weeds
Procedure: as §10, §11

[6] = test system: Dicots; experiment: Herbicidal activity, postemergence, dicot weeds (Table II); settings: post-emergence, 336 h, about 2 weeks, read-out: % control (percent of plants killed); for pest or weed control at 2241.7 g/ha: 2 lb./A.; for pest or weed control at 4483.4 g/ha: 4 lb./A.
Procedure: as §1
(§12) bindweed (Convolvulus arvensis) curly dock (Remex crispus) velvetleaf (Abutilon theophrasti) wild mustard (Brassica haber)
(§13) At 2 and 4 pounds per acre: […]
(§14) cocklebur (Xanthium pensylvanicum)
(§15) **coffeeweed (Sesbania macrocarpa)
(§16) *curly dock (Rumex crispus)
(§17) *lambsquarters (Chenopodium album) morningglory (Ipomoea purpurea)
(§18) *pigweed (Amaranthus retroflexus)
(§19) **ragweed (Ambrosia artemisiifolia)
(§20) *smartweed (Polygonum pensylvanicum)
(§21) **tomato (Lycopersicon esculentum)
(§22) *wild carrot (Daucus carota)
(§23) *wild mustard (Brassica haber)
as §10

[7] = test system: Dicots; experiment: Herbicidal activity, preemergence, dicot weeds (Table II); settings: pre-emergence, 336 h, about 2 weeks, read-out: % control (percent of plants killed); for pest or weed control at 2241.7 g/ha: 2 lb./A.; for pest or weed control at 4483.4 g/ha: 4 lb./A.
Procedure: as §1, §12, §13, §14, §15, §16, §17, §18, §19, §20, §21, §22, §23, §10

[8] = test system: wheat; experiment: Crop tolerance, wheat; settings: 50% or less kill of crop at rates giving more than 50% kill of weeds
Procedure: as §10, §11

[9] = test system: peanuts; experiment: Crop tolerance, peanuts; settings: 50% or less kill of crop at rates giving more than 50% kill of weeds
Procedure: as §10, §11

[10] = postemergence or on transplanted rice

| Compound | pest or weed control at 2241.7 g/ha [1] | pest or weed control at 4483.4 g/ha [1] | Tolerance to corn ([2]; preemergence) | pest or weed control at 2241.7 g/ha [3] | pest or weed control at 4483.4 g/ha [3] | Tolerance to soybeans ([4]; preemergence) | Tolerance to rice [5, 10] | pest or weed control at 2241.7 g/ha [6] | pest or weed control at 4483.4 g/ha [6] | pest or weed control at 2241.7 g/ha [7] | pest or weed control at 4483.4 g/ha [7] | Tolerance to corn ([2]; postemergence) | Tolerance to wheat ([8]; postemergence) | Tolerance to wheat ([8]; preemergence) | Tolerance to peanuts ([9]; postemergence) | Tolerance to rice ([5]; preemergence) | Tolerance to peanuts ([9]; preemergence) | Tolerance to soybeans ([4]; postemergence or layby) |
| --- | --- | --- | --- | --- | --- | --- | --- | --- | --- | --- | --- | --- | --- | --- | --- | --- | --- | --- |
| O=[N+]([O-])c1ccc(Oc2ccc(C(F)(F)F)cc2Cl)cc1OCC(F)(F)F [Example 11] | 100% | 82% | Tolerance | 88% | 81% | Tolerance | Tolerance | 100% | 99% | 99% | 98% | – | – | – | – | – | – | – |
| CC(=O)Oc1cc(Oc2ccc(C(F)(F)F)cc2Cl)ccc1[N+](=O)[O-] [Example 18, 2-Chloro-α,α,α-trifluoro-p-tolyl-3-acetoxy-4-nitrophenyl ether] | 28% | 28% | – | 99% | 67% | Tolerance | Tolerance | 98% | 86% | 100% | 100% | Tolerance | Tolerance | Tolerance | Tolerance | – | – | – |
| CCNc1cc(Oc2ccc(C(F)(F)F)cc2Cl)ccc1[N+](=O)[O-] [Example 19, 2-Chloro-α,α,α-trifluoro-p-tolyl-3-ethylamino-4-nitrophenyl ether] | 94% | 84% | Tolerance | 77% | 91% | Tolerance | – | 97% | 98% | 91% | 96% | Tolerance | – | Tolerance | – | Tolerance | Tolerance | – |
| CCN(CC)c1cc(Oc2ccc(C(F)(F)F)cc2Cl)ccc1[N+](=O)[O-] [Example 21, 2-Chloro-α,α,α-trifluoro-p-tolyl-3-diethylamino-4-nitrophenyl ether] | 90% | 74% | Tolerance | 79% | 91% | Tolerance | – | 94% | 96% | 90% | 99% | Tolerance | Tolerance | – | – | Tolerance | Tolerance | – |
| CCC(=O)Nc1cc(Oc2ccc(C(F)(F)F)cc2Cl)ccc1[N+](=O)[O-] [Example 34] | 47% | 32% | Tolerance | 83% | 35% | Tolerance | Tolerance | 90% | 89% | 85% | 52% | Tolerance | Tolerance | Tolerance | Tolerance | Tolerance | Tolerance | Tolerance |
| Cc1cc(Oc2ccc(C(F)(F)F)cc2Cl)ccc1[N+](=O)[O-] [Example 36, 2-chloro-α,α,α-trifluoro-p-tolyl-4-nitro-m-tolyl ether] | 94% | 87% | – | 100% | 93% | – | – | 98% | 100% | 100% | 100% | Tolerance | Tolerance | – | Tolerance | – | Tolerance | – |
| O=C(O)c1cc(Oc2ccc(C(F)(F)F)cc2Cl)ccc1[N+](=O)[O-] [Example 48, 2-Chloro-α,α,α-trifluoro-p-tolyl-3-carboxy-4-nitrophenyl ether] | 84% | 75% | – | 100% | 99% | Tolerance | Tolerance | 97% | 100% | 100% | 97% | – | Tolerance | – | Tolerance | – | Tolerance | – |
| COC(=O)c1cc(Oc2ccc(C(F)(F)F)cc2Cl)ccc1[N+](=O)[O-] [Example 49, 2-chloro-α,α,α-trifluoro-p-tolyl-3-carbomethoxy-4-nitrophenyl ether] | 77% | 86% | – | 100% | 92% | Tolerance | – | 100% | 100% | 100% | 95% | Tolerance | – | – | – | – | Tolerance | – |
| COC(=O)C(C)Oc1cc(Oc2ccc(C(F)(F)F)cc2Cl)ccc1[N+](=O)[O-] (centres unmarked) [Example 50] | 100% | 97% | – | 98% | 90% | Tolerance | – | 100% | 100% | 100% | 83% | – | – | Tolerance | – | – | Tolerance | – |
| CNC(=O)C(C)Oc1cc(Oc2ccc(C(F)(F)F)cc2Cl)ccc1[N+](=O)[O-] (centres unmarked) [Example 52] | 93% | 87% | Tolerance | 98% | 79% | Tolerance | – | 100% | 100% | 75% | 67% | Tolerance | – | – | – | Tolerance | Tolerance | – |
| CC(Oc1cc(Oc2ccc(C(F)(F)F)cc2Cl)ccc1[N+](=O)[O-])C(=O)N(C)C (centres unmarked) [Example 53] | 81% | 79% | – | 98% | 98% | Tolerance | Tolerance | 100% | 100% | 100% | 83% | Tolerance | – | – | Tolerance | – | Tolerance | – |
| CCOc1cc(Oc2c(Cl)cc(C(F)(F)F)cc2Cl)ccc1[N+](=O)[O-] [Example 56, 2,6-Dichloro-α,α,α-trifluoro-p-tolyl-3-ethoxy-4-nitrophenyl ether] | 100% | 99% | – | 100% | 91% | – | – | 99% | 100% | 100% | 83% | Tolerance | – | Tolerance | – | – | Tolerance | – |
